According to US20210000814A1, “RIMEGEPANT FOR CGRP RELATED DISORDERS” (Biohaven Pharmaceutical Holding Company Ltd., priority 2018, published 2021):

Experiments:
[1] = human, in vivo
Protocol: Clinical Trial—BHV3000-303: Phase 3: Double-Blind, Randomized, Placebo-Controlled, Safety and Efficacy Trial of BHV-3000 (Rimegepant) Orally Discintegrating Tablet (ODT) for the Acute Treatment of Migraine (ClinicalTrials.gov Identifier: NCT03461757) • A phase 3 clinical study was conducted with 1812 participants, as follows.
Study Design • Study Type: Interventional (Clinical Trial) • Actual Enrollment: 1812 participants • Allocation: Randomized • Intervention Model: Parallel Assignment • Masking: Triple (Participant, Care Provider, Investigator) • Primary Purpose: Treatment • Official Title: BHV3000-303: Phase 3, Double-Blind, Randomized, Placebo Controlled, Safety and Efficacy Trial of BHV-3000 (Rimegepant) Orally Disintegrating Tablet (ODT) for the Acute Treatment of Migraine • Actual Study Start Date: Feb. 27, 2018 • Actual Primary Completion Date: Oct. 8, 2018 • Actual Study Completion Date: Oct. 15, 2018

[2] = Pooled safety data (AEs, liver function tests) of Studies 301, 302 and 303; assay type: in vivo, human
[3] = test system: subjects with Acute Migraines; assay: BHV3000-301 Phase 3 trial, acute treatment of migraine: efficacy; assay type: in vivo, human; details: Study 301; P<0.0001
Protocol: Clinical Trial—BHV3000-301: Phase 3: Double-Blind, Randomized, Placebo-Controlled, Safety and Efficacy Trial of BHV-3000 (Rimegepant) for the Acute Treatment of Migraine (ClinicalTrials.gov Identifier: NCT03235479). A phase 3 clinical study was conducted with 1490 participants, as follows. […] Pain freedom of rimegepant (75 mg tablet) compared with placebo in the acute treatment of migraine will be measured using the number of evaluable subjects that report no pain at 2 hours post-dose. [Time Frame: Two hours post dose] • Pain will be measured on a 4 point Likert scale (0=none, 1=mild, 2=moderate, 3=severe) • 2. Freedom from the most bothersome symptom (MBS) of rimegepant (75 mg tablet) compared with placebo will be measured using the number of evaluable subjects that report the absence of their MBS at 2 hours post-dose. [Time Frame: Two hours post dose] • The MBS (nausea, phonophobia or photophobia) will measured using a binary scale (0=absent, 1=present). […] [Time Frame: 2 hours -24 hours post-dose] • Sustained Pain Freedom as measured by a 4 point numeric rating scale (None, Mild, Moderate, Severe) • 2. […] [Time Frame: 2 hours post-dose] • Pain Relief as measured by a 4 point numeric rating scale (None, Mild, Moderate, Severe) • 5. […] Sustained Pain Relief as measured by a 4 point numeric rating scale (None, Mild, Moderate, Severe) • 9. […]

patients with migraine = assay: BHV3000-201: reduction in headache days (migraines) per month, treatment vs observation phase; assay type: in vivo, human
Text: Study Design • Study Type: Interventional (Clinical Trial) • Estimated Enrollment: 2000 participants • Intervention Model: Single Group Assignment • Masking: None (Open Label) • Primary Purpose: Treatment • Official Title: A Multicenter, Open Label Long-Term Safety Study of BHV3000 in the Acute Treatment of Migraine • Actual Study Start Date: Aug. 30, 2017 • Estimated Primary Completion Date: July 2019 • Estimated Study Completion Date: July 2019 In addition to the interim safety analysis, data from subjects was assessed to determine reductions in the number of headache days per month.

[4] = pooled 301, 302, 303, n = 1,771

With `N[C@@H]1c2cccnc2[C@H](OC(=O)N2CCC(n3c(=O)[nH]c4ncccc43)CC2)CC[C@H]1c1cccc(F)c1F` [Rimegepant, [(55,65,9R)-5-amino-6-(2,3-difluorophenyl)-6,7,8,9-tetrahydro-5H-cyclohepta[b]pyridin-9-yl]4-(2-oxo-3H-imidazo[4,5-b]pyridin-1-yl)piperidine-1-carboxylate] the “LFTs >3xULN” value [1] was “one patient”, the safety and tolerability [1] was “consistent with the profile previously observed in Study 301” and the “highest incidence of any single adverse event (AE)” value ([1]; 48 h) was no more than 1.6%. For the same compound, the “bilirubin elevations > 2x ULN” value ([2]; across Studies 301, 302 and 303) was “no patients”, the “ALT or AST >5x ULN, number of patients” value ([2]; pooled 301, 302, 303, AST elevation deemed not drug-related) was 1 and the “ALT or AST >3x ULN, number of patients” value [2, 4] was 2. For the same compound, the “ALT or AST >3x ULN, percent” value [2, 4] was “(0.1%)”, the “ALT or AST >5x ULN, percent” value [2, 4] was “(0.06%)” and the “ALT or AST >10x ULN, number of patients” value [2, 4] was 0. For the same compound, the “ALT or AST >20x ULN, number of patients” value [2, 4] was 0, the “ALT or AST >ULN, number of patients” value [2, 4] was 48 and the “ALT or AST >ULN, percent” value [2, 4] was “(2.7%)”. The “patients achieving normal function at 2 hours (functional disability) versus placebo” value [3] was “greater proportion”, the “subjects with > = 20.0% decrease, number” value (patients with migraine; Overall, n 1731) was 683 and the “subjects with > = 25.0% decrease, number” value (patients with migraine; Overall, n 1731) was 602. The “subjects with > = 30.0% decrease, number” value (patients with migraine; Overall, n 1731) was 523, the “subjects with > = 35.0% decrease, number” value (patients with migraine; Overall, n 1731) was 442 and the “subjects with > = 40.0% decrease, number” value (patients with migraine; Overall, n 1731) was 362. The “subjects with > = 45.0% decrease, number” value (patients with migraine; Overall, n 1731) was 287, the “subjects with > = 50.0% decrease, number” value (patients with migraine; Overall, n 1731) was 226 and the “onset of reductions in the mean number of headache days per month” value (patients with migraine; Study 201) was “as early as the first month”.
